Laboratory results reported in patent publication US20130217664A1, “NOVEL COMPOUNDS USEFUL FOR THE TREATMENT OF DEGENERATIVE AND INFLAMMATORY DISEASES” (priority 2012, published 2013).

Columns and labels:
[1] = test system: BA/F3 cell line; assay: BA/F3 viability assay; details: Mus musculus, BaF3, 48 h, read-out: BA/F3 IC50
[2] = target: T1, human TYK2 (Homo sapiens, UniProt P29597); assay: TYK2 inhibition assay; type: biochemical; details: recombinant human TYK2 catalytic domain, polyGT substrate
T1 construct: catalytic domain (amino acids 871-1187; catalog number 08-147); purchased Carna Biosciences 08-147
T1 sequence (P29597 871-1187): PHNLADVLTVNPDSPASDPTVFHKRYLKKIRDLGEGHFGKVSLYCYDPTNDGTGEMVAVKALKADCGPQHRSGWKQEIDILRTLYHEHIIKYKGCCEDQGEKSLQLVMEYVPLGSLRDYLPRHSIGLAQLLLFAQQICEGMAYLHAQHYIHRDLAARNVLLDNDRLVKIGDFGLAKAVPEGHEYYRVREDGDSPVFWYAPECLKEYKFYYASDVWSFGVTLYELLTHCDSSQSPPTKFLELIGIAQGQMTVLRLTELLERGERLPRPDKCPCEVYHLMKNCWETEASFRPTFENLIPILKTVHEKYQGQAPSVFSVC
Outline: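 Radiometric kinase reaction run 90 min at 30 °C, stopped with phosphoric acid, washed and scintillation-counted.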

[3] = target: T2, human JAK2 (Homo sapiens, UniProt O60674); assay: JAK2 inhibition assay (polyGT substrate / Ulight-JAK1 peptide); type: biochemical; details: recombinant human JAK2 catalytic domain; polyGT or Ulight-JAK1 peptide assay
T2 construct: catalytic domain (amino acids 808-1132; catalog number PV4210); GST; purchased Invitrogen PV4210
Outline: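 Radiometric: 0.025 mU JAK2 with 2.5 μg polyGT, 1 μM ATP plus ^33P-ATP in MOPS pH 7.5 buffer, 1% DMSO, 90 min at 30° C.; filter counting. Alternative TR-FRET format with Ulight-JAK1 peptide, 60 min at room temperature, Eu-anti-phosphotyrosine detection.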

[4] = test system: CTLL-2 cell line; assay: CTLL2 viability assay; type: cell-based; details: Mus musculus, IL-2 dependent CTLL2 viability, 24 h, ATP-lite
From the text: The protocol describes the methods to analyse the activity of compounds on their ability to sustain the IL2-dependent viability of CTLL2.
Final DMSO concentration was 0.1%.

[5] = target: T3, human JAK3 (Homo sapiens, UniProt P52333); assay: JAK3 inhibition assay; type: biochemical; details: recombinant human JAK3 catalytic domain; polyGT substrate
T3 construct: catalytic domain (amino acids 781-1124; catalog number PV3855); purchased Invitrogen PV3855
Outline: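 Radiometric kinase assay: 0.5 ng JAK3 with 2.5 μg polyGT in Tris pH 7.5/MgCl2 buffer, 1 μM ATP plus 0.25 μCi 33P-γ-ATP, 1% DMSO, 45 min at 30 °C, stopped with phosphoric acid.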

[6] = target: T4, human JAK1 (Homo sapiens, UniProt P23458); assay: JAK1 inhibition assay (polyGT substrate / Ulight-JAK1 peptide); type: biochemical; details: recombinant human JAK1 catalytic domain; polyGT or Ulight-JAK1 peptide assay
T4 construct: catalytic domain, amino acids 866-1154; catalog number PV4774; purchased Invitrogen PV4774
Outline: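 Two formats. PolyGT radiometric: 45 min at 30 °C, stopped with phosphoric acid, counted as cpm. Ulight-JAK1 peptide: 60 min at room temperature, stopped with Eu-anti-phosphotyrosine/EDTA, read as RFU. Percent inhibition normalised to vehicle and 10 μM staurosporine.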

T2 sequence (O60674 808-1132): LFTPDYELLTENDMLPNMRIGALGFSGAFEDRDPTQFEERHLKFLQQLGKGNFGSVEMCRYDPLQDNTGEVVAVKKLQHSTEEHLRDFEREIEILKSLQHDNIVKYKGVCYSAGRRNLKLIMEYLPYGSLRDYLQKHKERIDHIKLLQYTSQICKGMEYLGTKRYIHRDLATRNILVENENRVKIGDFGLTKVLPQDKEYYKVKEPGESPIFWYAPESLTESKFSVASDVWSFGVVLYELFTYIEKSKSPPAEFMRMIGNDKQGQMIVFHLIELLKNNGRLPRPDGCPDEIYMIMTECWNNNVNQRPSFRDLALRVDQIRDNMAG
T4 sequence (P23458 866-1154): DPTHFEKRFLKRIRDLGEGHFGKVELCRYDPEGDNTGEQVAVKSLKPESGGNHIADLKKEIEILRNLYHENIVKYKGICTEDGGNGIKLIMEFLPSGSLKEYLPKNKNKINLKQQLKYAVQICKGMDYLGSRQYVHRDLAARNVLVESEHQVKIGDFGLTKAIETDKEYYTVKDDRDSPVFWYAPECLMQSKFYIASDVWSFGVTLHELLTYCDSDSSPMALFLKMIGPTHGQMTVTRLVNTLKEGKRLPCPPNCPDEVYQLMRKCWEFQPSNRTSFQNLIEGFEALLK
T3 sequence (P52333 781-1124): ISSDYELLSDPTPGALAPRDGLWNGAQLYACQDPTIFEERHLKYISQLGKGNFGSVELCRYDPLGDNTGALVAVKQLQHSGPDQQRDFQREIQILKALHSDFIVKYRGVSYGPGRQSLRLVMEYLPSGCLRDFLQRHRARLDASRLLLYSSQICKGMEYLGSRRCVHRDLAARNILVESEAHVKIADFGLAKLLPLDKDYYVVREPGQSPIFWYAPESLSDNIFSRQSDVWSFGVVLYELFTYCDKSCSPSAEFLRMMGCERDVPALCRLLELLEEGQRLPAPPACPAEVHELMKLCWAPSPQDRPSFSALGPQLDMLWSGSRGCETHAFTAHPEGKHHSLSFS

| Structure (SMILES) | IC50 [1] [nM] | IC50 [2] [nM] | IC50 [3] [nM] | IC50 [4] [nM] | IC50 [5] [nM] | IC50 [6] [nM] |
| --- | --- | --- | --- | --- | --- | --- |
| CN(c1cc2c(cn1)ncn2C)c1c(F)cc(C2CN(S(C)(=O)=O)C2)cc1F [Compound 409, [2,6-Difluoro-4-(1-methanesulfonyl-azetidin-3-yl)-phenyl]-methyl-(1-methyl-1H-imidazo[4,5-c]pyridin-6-yl)-amine] | > 5000 | > 1000 | 101 to 500 | > 1000 | 501 to 1000 | 0.01 to 100 |
| CCc1cc(C2CN(CC(F)(F)F)C2)ncc1N(C)c1cc2c(cn1)ncn2C [Compound 342, {4-Ethyl-6-[1-(2,2,2-trifluoro-ethyl)-azetidin-3-yl]-pyridin-3-yl}-methyl-(1-methyl-1H-imidazo[4,5-c]pyridin-6-yl)-amine] | > 5000 | > 1000 | > 1000 | > 1000 | > 1000 | 101 to 500 |
| CCc1cc(C2CN(S(=O)(=O)C(F)F)C2)ccc1N(C)c1cc2c(cn1)ncn2C [Compound 354, {4-[1-(Difluoro-methanesulfonyl)-azetidin-3-yl]-2-ethyl-phenyl}-methyl-(1-methyl-1H-imidazo[4,5-c]pyridin-6-yl)-amine] | 1000 to 5000 | 0.01 to 100 | 0.01 to 100 | 501 to 1000 | 0.01 to 100 | 0.01 to 100 |
| CCn1nc(-c2ccc(Cl)cc2)cc1N(C)c1cc2c(cn1)ncn2C [Compound 307, [5-(4-Chloro-phenyl)-2-ethyl-2H-pyrazol-3-yl]-methyl-(1-methyl-1H-imidazo[4,5-c]pyridin-6-yl)-amine] | > 5000 | 101 to 500 | 101 to 500 | > 1000 | 101 to 500 | 0.01 to 100 |
| CN(c1cc2c(cn1)ncn2C)c1ccc(CN(C)S(C)(=O)=O)cc1F [Compound 358, N-{3-Fluoro-4-[methyl-(1-methyl-1H-imidazo[4,5-c]pyridin-6-yl)-amino]-benzyl}-N-methyl-methanesulfonamide] | > 5000 | 101 to 500 | 0.01 to 100 | > 1000 | 101 to 500 | 0.01 to 100 |
| CN(c1cc2c(cn1)ncn2C)c1ccc(CN(C)S(C)(=O)=O)cc1OC(F)F [Compound 430, N-{3-Difluoromethoxy-4-[methyl-(1-methyl-1H-imidazo[4,5-c]pyridin-6-yl)-amino]-benzyl}-N-methyl-methanesulfonamide] | 1000 to 5000 | 0.01 to 100 | 0.01 to 100 | > 1000 | 0.01 to 100 | 0.01 to 100 |
| CCc1cc(C2CN(S(=O)(=O)CC#N)C2)ccc1N(C)c1cc2c(cn1)ncn2C [Compound 353, (3-{3-Ethyl-4-[methyl-(1-methyl-1H-imidazo[4,5-c]pyridin-6-yl)-amino]-phenyl}-azetidine-1-sulfonyl)-acetonitrile] | 1000 to 5000 | 0.01 to 100 | 0.01 to 100 | 501 to 1000 | 0.01 to 100 | 0.01 to 100 |
| CCc1cc(C2CN(C(=O)C(F)(F)F)C2)ccc1N(C)c1cc2c(cn1)ncn2C [Compound 347, 1-(3-{3-Ethyl-4-[methyl-(1-methyl-1H-imidazo[4,5-c]pyridin-6-yl)-amino]-phenyl}-azetidin-1-yl)-2,2,2-trifluoro-ethanone] | > 5000 | 101 to 500 | 101 to 500 | > 1000 | 101 to 500 | 0.01 to 100 |
| CN(c1cc2c(cn1)ncn2C)c1ccc(C2CN(C(=O)OC(C)(C)C)C2)cc1OC(F)F [Compound 362, 3-{3-Difluoromethoxy-4-[methyl-(1-methyl-1H-imidazo[4,5-]pyridin-6-yl)-amino]-phenyl}-azetidine-1-carboxylic acid tert-butyl ester] | > 5000 | > 1000 | > 1000 | > 1000 | > 1000 | 501 to 1000 |
